Values quoted from earlier work as cited in patent publication US20050142123A1, “Water-dispersible coenzyme q10 dry powders” (priority 2002, published 2005).

How the values were obtained:
[1] = administered orally

COC1=C(OC)C(=O)C(CC=C(C)CCC=C(C)CCC=C(C)CCC=C(C)CCC=C(C)CCC=C(C)CCC=C(C)CCC=C(C)CCC=C(C)CCC=C(C)C)=C(C)C1=O [Coenzyme Q-10, 6-Decaprenyl-2,3-dimethoxy-5-methyl-1,4-benzoquinone]
solubility in water: practically insoluble in water | bioavailability [1]: poor
